Test results: patent publication US10335503B2, “Compound that specifically binds to AMPA receptor” (Public University Corporation Yokohama City University, priority 2015, dated 2019)
*1 amine or outer side, *2 acyl side, *3 side chain or, on linkers, in order; H or OH if unused. Where a SMILES comes first, the peptide text is derived from it. Where no end group is shown, it is not given here. [ ]: non-standard residue; d: D form. NMeF = CN[C@@H](Cc1ccccc1)C(=O)O; Suc = O=C(CCC(=O)[*:2])[*:1]

How the values were obtained:
Settings in all cases: Positive substance, concentration not given
[1] = test system: Glutamate (NMDA agonist site); assay: Receptor binding panel: Glutamate (NMDA agonist site)
Dopamine D2 short = Dopamine D2 short (Homo sapiens, UniProt P14416); assay: Receptor binding panel: Dopamine D2 short
Chain of Dopamine D2 short (P14416 1-414 isoform P14416-2): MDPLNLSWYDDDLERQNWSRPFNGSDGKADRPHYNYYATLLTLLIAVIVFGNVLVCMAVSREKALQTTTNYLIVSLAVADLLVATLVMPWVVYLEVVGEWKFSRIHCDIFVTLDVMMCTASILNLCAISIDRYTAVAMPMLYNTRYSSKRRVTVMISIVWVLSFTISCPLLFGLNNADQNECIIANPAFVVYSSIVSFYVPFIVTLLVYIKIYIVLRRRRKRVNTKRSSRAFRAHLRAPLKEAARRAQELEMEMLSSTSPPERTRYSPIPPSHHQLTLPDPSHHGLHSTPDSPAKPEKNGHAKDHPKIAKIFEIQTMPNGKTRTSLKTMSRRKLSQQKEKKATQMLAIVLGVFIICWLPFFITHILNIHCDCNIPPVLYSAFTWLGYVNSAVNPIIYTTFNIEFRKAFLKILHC

Leukotriene B4 = assay: Receptor binding panel: Leukotriene B4
Histamine H3 = Histamine H3 (Homo sapiens, UniProt Q9Y5N1); assay: Receptor binding panel: Histamine H3
Chain of Histamine H3 (Q9Y5N1 whole entry): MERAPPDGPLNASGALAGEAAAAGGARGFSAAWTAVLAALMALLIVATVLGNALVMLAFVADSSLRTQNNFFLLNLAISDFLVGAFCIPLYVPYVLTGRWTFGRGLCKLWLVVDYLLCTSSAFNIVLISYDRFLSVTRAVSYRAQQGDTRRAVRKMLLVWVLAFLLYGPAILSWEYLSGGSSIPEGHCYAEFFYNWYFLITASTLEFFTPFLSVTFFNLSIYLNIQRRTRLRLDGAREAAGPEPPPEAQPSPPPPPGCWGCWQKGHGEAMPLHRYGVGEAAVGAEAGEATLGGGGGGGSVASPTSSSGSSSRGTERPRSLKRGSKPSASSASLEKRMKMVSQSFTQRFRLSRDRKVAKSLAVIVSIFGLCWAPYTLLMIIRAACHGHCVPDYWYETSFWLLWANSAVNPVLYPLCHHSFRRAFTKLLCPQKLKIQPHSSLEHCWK

Neurokinin NK1 = Neurokinin NK1 (Homo sapiens, UniProt P25103); assay: Receptor binding panel: Neurokinin NK1
Chain of Neurokinin NK1 (P25103 whole entry): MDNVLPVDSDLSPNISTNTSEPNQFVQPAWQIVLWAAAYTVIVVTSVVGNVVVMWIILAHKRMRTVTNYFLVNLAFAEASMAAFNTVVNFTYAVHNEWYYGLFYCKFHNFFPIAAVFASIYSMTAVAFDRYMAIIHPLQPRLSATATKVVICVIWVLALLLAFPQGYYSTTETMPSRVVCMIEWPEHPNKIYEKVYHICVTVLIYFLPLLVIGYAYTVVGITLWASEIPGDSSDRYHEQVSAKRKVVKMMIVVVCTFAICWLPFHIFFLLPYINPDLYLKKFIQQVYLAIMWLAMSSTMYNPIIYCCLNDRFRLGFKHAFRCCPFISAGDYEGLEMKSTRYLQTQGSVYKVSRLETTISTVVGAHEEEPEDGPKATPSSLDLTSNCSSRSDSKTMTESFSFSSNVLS

Glutamate (Kainate) = assay: Receptor binding panel: Glutamate (Kainate)
GABA A (Agonist site) = assay: Receptor binding panel: GABA A (Agonist site)
GABA A (BZ central) = assay: Receptor binding panel: GABA A (BZ central)
K Channel KATP = assay: Receptor binding panel: K Channel KATP
CRF1 = target: T1, CRF1 (Homo sapiens, UniProt P34998); assay: Receptor binding panel: CRF1
T1 sequence (P34998 24-415): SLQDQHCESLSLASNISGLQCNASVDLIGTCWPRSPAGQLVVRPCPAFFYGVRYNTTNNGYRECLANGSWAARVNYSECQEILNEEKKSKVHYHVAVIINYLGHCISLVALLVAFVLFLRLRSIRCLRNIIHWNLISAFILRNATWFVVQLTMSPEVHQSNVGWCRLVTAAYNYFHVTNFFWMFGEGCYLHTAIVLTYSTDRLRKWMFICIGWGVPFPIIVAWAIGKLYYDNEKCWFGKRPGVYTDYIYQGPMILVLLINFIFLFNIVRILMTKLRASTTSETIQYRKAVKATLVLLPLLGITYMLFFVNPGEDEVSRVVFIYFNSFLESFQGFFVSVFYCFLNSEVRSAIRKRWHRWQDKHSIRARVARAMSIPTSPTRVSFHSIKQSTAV

Estrogen = assay: Receptor binding panel: Estrogen
Nicotinic = assay: Receptor binding panel: Nicotinic; design: species or system Human
Serotonin transporter = Serotonin transporter (Homo sapiens, UniProt P31645); assay: Receptor binding panel: Serotonin transporter
Chain of Serotonin transporter (P31645 whole entry): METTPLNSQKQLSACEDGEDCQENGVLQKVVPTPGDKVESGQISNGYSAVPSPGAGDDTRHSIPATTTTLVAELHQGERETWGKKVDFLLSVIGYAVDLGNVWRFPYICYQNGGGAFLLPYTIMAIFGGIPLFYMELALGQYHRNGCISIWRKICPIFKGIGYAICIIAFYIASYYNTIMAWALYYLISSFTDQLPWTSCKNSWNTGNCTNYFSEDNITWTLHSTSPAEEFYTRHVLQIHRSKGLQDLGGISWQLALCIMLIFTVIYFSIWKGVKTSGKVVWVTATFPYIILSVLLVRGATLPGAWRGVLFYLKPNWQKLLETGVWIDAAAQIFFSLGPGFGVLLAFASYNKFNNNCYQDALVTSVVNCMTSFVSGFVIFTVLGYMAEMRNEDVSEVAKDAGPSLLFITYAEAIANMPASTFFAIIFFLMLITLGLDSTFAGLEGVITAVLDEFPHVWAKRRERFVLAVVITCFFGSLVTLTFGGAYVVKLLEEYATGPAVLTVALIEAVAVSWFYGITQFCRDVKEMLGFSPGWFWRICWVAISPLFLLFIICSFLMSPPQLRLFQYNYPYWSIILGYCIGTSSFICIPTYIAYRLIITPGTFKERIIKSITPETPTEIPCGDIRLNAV

Serotonin 5HT3 = Serotonin 5HT3 (Homo sapiens, UniProt P46098); assay: Receptor binding panel: Serotonin 5HT3
Chain of Serotonin 5HT3 (P46098 24-478): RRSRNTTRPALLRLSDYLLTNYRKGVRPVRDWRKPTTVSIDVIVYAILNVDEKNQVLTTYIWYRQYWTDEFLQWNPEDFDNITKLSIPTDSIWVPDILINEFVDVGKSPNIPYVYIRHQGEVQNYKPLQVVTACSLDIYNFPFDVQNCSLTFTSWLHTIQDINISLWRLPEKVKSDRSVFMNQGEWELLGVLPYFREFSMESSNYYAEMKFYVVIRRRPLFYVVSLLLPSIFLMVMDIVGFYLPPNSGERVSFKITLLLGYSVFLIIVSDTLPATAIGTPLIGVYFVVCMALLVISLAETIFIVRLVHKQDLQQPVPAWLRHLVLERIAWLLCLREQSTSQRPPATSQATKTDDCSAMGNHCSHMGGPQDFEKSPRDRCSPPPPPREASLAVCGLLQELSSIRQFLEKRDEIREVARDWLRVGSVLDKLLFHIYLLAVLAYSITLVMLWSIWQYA

Serotonin 5HT2A = Serotonin 5HT2A (Homo sapiens, UniProt P28223); assay: Receptor binding panel: Serotonin 5HT2A
Chain of Serotonin 5HT2A (P28223 whole entry): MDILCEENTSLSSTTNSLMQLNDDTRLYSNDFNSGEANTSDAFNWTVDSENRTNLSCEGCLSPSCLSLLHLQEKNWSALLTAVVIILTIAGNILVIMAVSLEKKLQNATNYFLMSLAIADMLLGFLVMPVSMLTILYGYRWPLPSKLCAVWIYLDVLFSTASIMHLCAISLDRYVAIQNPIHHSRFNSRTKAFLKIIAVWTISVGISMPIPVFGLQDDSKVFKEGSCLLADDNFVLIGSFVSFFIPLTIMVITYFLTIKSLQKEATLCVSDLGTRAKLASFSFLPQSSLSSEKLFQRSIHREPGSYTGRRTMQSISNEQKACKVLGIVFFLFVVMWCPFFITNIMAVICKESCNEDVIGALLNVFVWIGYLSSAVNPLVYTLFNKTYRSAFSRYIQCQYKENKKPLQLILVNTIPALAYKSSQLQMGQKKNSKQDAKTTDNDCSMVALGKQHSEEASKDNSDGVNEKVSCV

Glutamate (AMPA) = assay: Receptor binding panel: Glutamate (AMPA)
Sigma σ1 = Sigma σ1 (Homo sapiens, UniProt Q99720); assay: Receptor binding panel: Sigma σ1
Chain of Sigma σ1 (Q99720 whole entry): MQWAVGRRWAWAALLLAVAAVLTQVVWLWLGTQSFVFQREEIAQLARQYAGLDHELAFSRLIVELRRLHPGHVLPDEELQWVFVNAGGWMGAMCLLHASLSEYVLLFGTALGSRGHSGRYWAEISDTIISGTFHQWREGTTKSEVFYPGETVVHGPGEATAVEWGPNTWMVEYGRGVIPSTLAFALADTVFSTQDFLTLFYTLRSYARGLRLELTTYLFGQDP

Melatonin MT1 = Melatonin MT1 (Homo sapiens, UniProt P48039); assay: Receptor binding panel: Melatonin MT1
Chain of Melatonin MT1 (P48039 whole entry): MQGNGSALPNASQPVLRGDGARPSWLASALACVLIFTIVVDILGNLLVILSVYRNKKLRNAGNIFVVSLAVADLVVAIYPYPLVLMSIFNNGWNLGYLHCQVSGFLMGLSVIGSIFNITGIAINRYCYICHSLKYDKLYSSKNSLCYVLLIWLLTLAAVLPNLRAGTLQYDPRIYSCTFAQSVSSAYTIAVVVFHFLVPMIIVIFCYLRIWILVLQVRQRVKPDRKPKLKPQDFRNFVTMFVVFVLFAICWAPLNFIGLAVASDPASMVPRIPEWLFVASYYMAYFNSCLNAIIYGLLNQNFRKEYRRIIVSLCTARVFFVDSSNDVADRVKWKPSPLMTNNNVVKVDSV

Na channel site 2 = assay: Receptor binding panel: Na channel site 2
Sigma σ2 = Sigma σ2 (Homo sapiens, UniProt Q5BJF2); assay: Receptor binding panel: Sigma σ2
Chain of Sigma σ2 (Q5BJF2 whole entry): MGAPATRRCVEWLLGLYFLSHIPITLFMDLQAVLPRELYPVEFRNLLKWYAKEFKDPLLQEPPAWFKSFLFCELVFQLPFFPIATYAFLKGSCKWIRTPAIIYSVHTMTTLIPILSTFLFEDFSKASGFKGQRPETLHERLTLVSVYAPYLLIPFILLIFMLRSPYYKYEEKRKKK

[2] = test system: Glutamate (NMDA phencyclidine site); assay: Receptor binding panel: Glutamate (NMDA phencyclidine site)
[3] = test system: Glutamate (NMDA glycine site); assay: Receptor binding panel: Glutamate (NMDA glycine site)
Leukotriene D4 = assay: Receptor binding panel: Leukotriene D4
Histamine H2 = Histamine H2 (Homo sapiens, UniProt P25021); assay: Receptor binding panel: Histamine H2
Chain of Histamine H2 (P25021 whole entry): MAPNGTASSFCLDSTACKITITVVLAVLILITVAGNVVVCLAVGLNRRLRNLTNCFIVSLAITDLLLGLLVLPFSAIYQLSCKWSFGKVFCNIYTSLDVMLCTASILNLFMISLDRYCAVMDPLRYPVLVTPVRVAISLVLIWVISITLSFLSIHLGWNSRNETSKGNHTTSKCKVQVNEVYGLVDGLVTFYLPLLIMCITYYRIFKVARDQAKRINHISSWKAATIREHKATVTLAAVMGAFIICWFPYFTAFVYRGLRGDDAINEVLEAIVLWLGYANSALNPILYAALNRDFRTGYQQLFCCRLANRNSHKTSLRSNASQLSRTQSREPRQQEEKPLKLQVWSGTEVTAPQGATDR

Neurokinin NK3 = Neurokinin NK3 (Homo sapiens, UniProt P29371); assay: Receptor binding panel: Neurokinin NK3
Chain of Neurokinin NK3 (P29371 whole entry): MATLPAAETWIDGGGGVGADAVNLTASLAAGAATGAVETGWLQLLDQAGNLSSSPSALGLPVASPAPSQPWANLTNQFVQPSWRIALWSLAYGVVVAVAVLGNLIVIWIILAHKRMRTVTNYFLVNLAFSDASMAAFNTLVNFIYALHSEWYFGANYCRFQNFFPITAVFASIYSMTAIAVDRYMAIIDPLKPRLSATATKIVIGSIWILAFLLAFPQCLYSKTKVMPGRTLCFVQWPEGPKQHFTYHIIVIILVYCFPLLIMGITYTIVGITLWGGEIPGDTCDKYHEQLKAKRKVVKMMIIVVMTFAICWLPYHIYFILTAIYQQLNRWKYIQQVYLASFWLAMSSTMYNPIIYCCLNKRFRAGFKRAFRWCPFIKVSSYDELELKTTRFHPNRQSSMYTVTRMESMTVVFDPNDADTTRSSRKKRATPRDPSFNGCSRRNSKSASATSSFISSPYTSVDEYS

Opiate δ = Opiate δ (Homo sapiens, UniProt P41143); assay: Receptor binding panel: Opiate δ
Chain of Opiate δ (P41143 whole entry): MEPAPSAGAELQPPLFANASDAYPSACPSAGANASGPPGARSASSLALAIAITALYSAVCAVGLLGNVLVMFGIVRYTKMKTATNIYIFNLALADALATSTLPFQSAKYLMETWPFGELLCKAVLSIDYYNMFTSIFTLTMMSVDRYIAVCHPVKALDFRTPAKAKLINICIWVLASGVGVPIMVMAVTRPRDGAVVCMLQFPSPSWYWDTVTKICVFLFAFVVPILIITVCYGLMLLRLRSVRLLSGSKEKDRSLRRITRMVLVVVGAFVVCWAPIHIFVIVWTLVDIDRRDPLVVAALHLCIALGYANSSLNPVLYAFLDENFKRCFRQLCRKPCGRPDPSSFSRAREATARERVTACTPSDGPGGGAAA

Molecule: N[C@@H](CCC(=O)O)C(=O)O [L-Glutamic acid, reference compound]
- Inhibition (%) [1]: 100.00%

Molecule: (+)-Butaclamol [reference compound]
- Inhibition (%) (Dopamine D2 short): 100.00%

Molecule: CCCCC/C=C\C[C@@H](O)/C=C/C=C/C=C\[C@@H](O)CCCC(=O)O [Leukotriene B4, reference compound]
- Inhibition (%) (Leukotriene B4): 98.89%

Molecule: C[C@@H](N)Cc1c[nH]cn1 [(R)(−)-α-Methyl histamine, reference compound]
- Inhibition (%) (Histamine H3): 98.17%

Molecule: Ic1ccccc1CN[C@@H]1C2CCN(CC2)[C@@H]1C(c1ccccc1)c1ccccc1 (racemic) [L-703,606, reference compound]
- Inhibition (%) (Neurokinin NK1): 94.45%

Molecule: C=C(C)[C@H]1CN[C@H](C(=O)O)[C@H]1CC(=O)O [Kainic acid, reference compound]
- Inhibition (%) (Glutamate (Kainate)): 100.00%

Molecule: NCc1cc(=O)[nH]o1 [Muscimol, reference compound]
- Inhibition (%) (GABA A (Agonist site)): 97.63%

Molecule: CN1C(=O)CN=C(c2ccccc2)c2cc(Cl)ccc21 [Diazepam, reference compound]
- Inhibition (%) (GABA A (BZ central)): 100.00%

Molecule: COc1ccc(Cl)cc1C(=O)NCCc1ccc(S(=O)(=O)NC(=O)NC2CCCCC2)cc1 [Glybenclamide, reference compound]
- Inhibition (%) (K Channel KATP): 100.00%

Molecule: Urocortin human (DNPSLSIDLTFHLLRTLLELARTQSQRERAEQNRIIFDSV; ends and bridges not checked; UniProt P55089 83-122, looked up) [reference compound]
- Inhibition (%) (CRF1): 100.00%

Molecule: C[C@]12CC[C@@H]3c4ccc(O)cc4CC[C@H]3[C@@H]1CC[C@@H]2O [β-Estradiol, reference compound]
- Inhibition (%) (Estrogen): 100.00%

Molecule: Clc1ccc(C2CC3CCC2N3)cn1 (racemic) [(±)-Epibatidine, reference compound]
- Inhibition (%) (Nicotinic): 98.46%

Molecule: CN(C)CCCN1c2ccccc2CCc2ccccc21 [Imipramine, reference compound]
- Inhibition (%) (Serotonin transporter): 100.00%

Molecule: CN1[C@@H]2CC[C@H]1C[C@@H](OC(=O)c1c[nH]c3ccccc13)C2 [Tropisetron, reference compound]
- Inhibition (%) (Serotonin 5HT3): 99.80%

Molecule: O=C(c1ccc(F)cc1)C1CCN(CCn2c(=O)[nH]c3ccccc3c2=O)CC1 [Ketanserin, reference compound]
- Inhibition (%) (Serotonin 5HT2A): 99.20%

Molecule: Cc1onc(O)c1C[C@H](N)C(=O)O [(S)-AMPA, reference compound]
- Inhibition (%) (Glutamate (AMPA)): 100.00%

Molecule: CC(C)=CCN1CCC2(C)c3cc(O)ccc3CC1C2C (single isomer, unassigned; (+)) [(+)-Pentazocine, reference compound]
- Inhibition (%) (Sigma σ1): 100.00%

Molecule: COc1ccc2[nH]cc(CCNC(C)=O)c2c1 [Melatonin, reference compound]
- Inhibition (%) (Melatonin MT1): 100.00%

Molecule: CCCCOc1cc(C(=O)NCCN(CC)CC)c2ccccc2n1 [Dibucaine, reference compound]
- Inhibition (%) (Na channel site 2): 97.37%

Molecule: O=C(CCCN1CCC(O)(c2ccc(Cl)cc2)CC1)c1ccc(F)cc1 [Haloperidol, reference compound]
- Inhibition (%) (Sigma σ2): 100.00%

Molecule: (+)-MK-801 [reference compound]
- Inhibition (%) [2]: 100.00%

Molecule: O=C(O)/C(=C/c1c(C(=O)O)[nH]c2cc(Cl)cc(Cl)c12)c1ccccc1 [MDL105,519, reference compound]
- Inhibition (%) [3]: 100.00%

Molecule: CCCCC/C=C\C\C=C/C=C/C=C/[C@@H](SC[C@H](N)C(=O)NCC(=O)O)[C@@H](O)CCCC(=O)O [Leukotriene D4, reference compound]
- Inhibition (%) (Leukotriene D4): 100.00%

Molecule: CN/C(=N/CCSCc1nc[nH]c1C)NC#N [Cimetidine, reference compound]
- Inhibition (%) (Histamine H2): 100.00%

Molecule: CSCC[C@H](NC(=O)[C@H](CC(C)C)NC(=O)CNC(=O)[C@H](Cc1ccccc1)N(C)C(=O)[C@H](Cc1ccccc1)NC(=O)[C@H](CC(=O)O)NC(=O)CCC(=O)O)C(N)=O [Senktide, reference compound] (Suc-DF[NMeF]GLM-NH2)
- Inhibition (%) (Neurokinin NK3): 98.43%

Molecule: Oc1ccc2c3c1O[C@H]1c4oc5ccccc5c4C[C@@]4(O)[C@@H](C2)N(CC2CC2)CC[C@]314 [Naltriben, reference compound]
- Inhibition (%) (Opiate δ): 98.32%
